# In PMC10449633 (Nature Chemical Biology, 2023):
# pIC50: −log10 of the molar value. Several values for one entry are separate records, joined by “and”; a condition that tells them apart may be missing. Equal values may be shown once. Read-outs that look alike come from different tables or passages of the source. Numbered stars: 1 amine (or outer) side, 2 acyl side, 3 side chain; on linkers, the order of the positions; unused ones are H or OH. Square brackets hold non-standard residues; d marks the D form. Peptide text beside a SMILES is read from it. ξ: configuration not given here. X1 = CN(C(Cc1cn(Cc2ccc(Br)cc2)c2ccccc12)C(=O)[*:2])[*:1]; ξAla(CF3) = NC(CC(F)(F)F)C(=O)O; X2 = N#CCCC(O[*:1])C(=O)[*:2]; NMeL = CN[CH](CC(C)C)C(=O)O; NMeA = CN[CH](C)C(=O)O
# Columns and labels:
# [1] = target: Sec61α N300A (Canis lupus familiaris, UniProt P38377, N300A); assay: Luciferase reporter assay in HEK293 cells expressing Sec61α N300A; design: remaining activity: dose or concentration left out as unconfirmed
# Experimental: (§1) Data are mean values ± s.d. from n = 2 independent experiments.
# (§2) HEK293T cells (0.3 × 10^6) were seeded per well of a six-well plate and incubated at 37 °C in 5% CO2 for 24 h to adhere. Each of the two wells was transfected with 1 µg of plasmid encoding a luciferase with the signal peptide of either VCAM1 or pPL using PEI in a 5:1 ratio, after which cells were returned to the incubator for a further 24 h. Transfected cells were then resuspended following trypsinization, cell count estimated using a TC20 Automated Cell Counter (BioRad) and diluted to seed a 96-well flat-bottom plate with 1.6 × 10^4 cells per well. […] Cells were then incubated for a further 24 h, after which the luciferase-containing media were transferred to a clean 96-well plate and stored at −20 °C. Luciferase activity of the media was estimated using a Gaussia-GLOW Juice Luciferase Assay kit from PJK Biotech GmbH as per the manufacturer’s instructions. Luminescence was measured using an EnSpire Multimode plate reader (PerkinElmer). Background luminescence from media placed in a well with neither cells nor drug was subtracted from all values, and measurements were calculated as a percentage of luminescence intensity of a well expressing the appropriate luciferase construct in the absence of any drug. Curves were fitted, and IC50 values were calculated using GraphPad Prism 8.
# (§3) WT canine Sec61 was cloned into pcDNA5/FRT/TO (Thermo Fisher Scientific), and point mutations were generated using PCR. All mutants were sequence verified. HEK293 Flp-In T-REx cells (Thermo Fisher Scientific, R78007) were cultured in Dulbecco’s modified Eagle’s medium (Gibco) supplemented with 10% FBS (Gibco) at 37 °C in a humidified 5% CO2 atmosphere. Approximately 0.3 µg of pOG44 and 1 µg of targeting construct plasmids were mixed in 250 µl of OptiMEM (Thermo Fisher Scientific, 51985-026). A total of 3 µl (3 µg) Lipofectamine3000 transfection reagent was then added to the DNA mix and incubated at room temperature for 20 min, and the whole mixture was added to the cells. Cells were exposed to 100 µg ml^−^1 hygromycin B (Invitrogen) and 10 µg ml^−^1 blasticidin for 3–4 weeks until the appearance of resistant colonies. Colonies were expanded into T75 flasks and induced with doxycycline (Sigma-Aldrich, D9891) at a concentration of 1–5 µg ml^−^1 for 48 h. Cells were collected, and total RNA was extracted followed by cDNA amplification and sequencing of Sec61 with gene-specific PCR primers to confirm. Cells were then used for the luciferase reporter assays as above.
# (§4) Data are mean values ± SD and are representative of n = 2 independent experiments.
# [2] = target: T1, WT Sec61α (Canis lupus familiaris, UniProt P38377); assay: GLuc secretion reporter fused to full-length IL-2 or TNF, cells stably expressing WT Sec61α; type: cell-based, canine; conditions: for Sec61 WT - Hu IL2(FL) / Sec61 WT - Hu PD1(ss) / Sec61 WT - Hu TNFa(FL): replicate columns
# T1 construct: expressed in transfected cells
# [3] = tested on: T-cell acute lymphoblastic leukemia cells; conditions: in vitro; cited from earlier work
# [4] = target: T2, Sec61 (Homo sapiens, UniProt P61619); assay: cell-based; type: cell-based; conditions: for remaining activity at 0.000660151 µM: Drug nM (log10) 0.660151; for remaining activity at 0.00050805 µM: Drug nM (log10) -0.29409
# T2 construct: endogenous in cells
# [5] = tested on: mouse splenocytes; conditions: 24 h treatment
# [6] = target: Sec61α Q127A (Canis lupus familiaris, UniProt P38377, Q127A); assay: Luciferase reporter assay in HEK293 cells expressing Sec61α Q127A; conditions: HEK293, 24 h, read-out: luciferase reporter activity (% of no-drug control), Q127A
# Experimental: as §1, §2, §3, §4
# [7] = HEK-293T, 24 h, VCAM signal peptide, read-out: secreted luciferase activity (% of no-drug control)
# [8] = HEK-293T, 24 h, pPL signal peptide, read-out: secreted luciferase activity (% of no-drug control)
# Sequence of Sec61α Q127A (P60059 whole entry): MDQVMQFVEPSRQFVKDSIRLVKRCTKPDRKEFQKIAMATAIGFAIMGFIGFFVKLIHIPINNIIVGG
# Sequence of Sec61α Q127A (P60468 whole entry, further chain): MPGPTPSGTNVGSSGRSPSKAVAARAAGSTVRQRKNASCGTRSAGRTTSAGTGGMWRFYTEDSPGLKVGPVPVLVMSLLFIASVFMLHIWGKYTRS
# Sequence of Sec61α Q127A (P38377 whole entry Q127A): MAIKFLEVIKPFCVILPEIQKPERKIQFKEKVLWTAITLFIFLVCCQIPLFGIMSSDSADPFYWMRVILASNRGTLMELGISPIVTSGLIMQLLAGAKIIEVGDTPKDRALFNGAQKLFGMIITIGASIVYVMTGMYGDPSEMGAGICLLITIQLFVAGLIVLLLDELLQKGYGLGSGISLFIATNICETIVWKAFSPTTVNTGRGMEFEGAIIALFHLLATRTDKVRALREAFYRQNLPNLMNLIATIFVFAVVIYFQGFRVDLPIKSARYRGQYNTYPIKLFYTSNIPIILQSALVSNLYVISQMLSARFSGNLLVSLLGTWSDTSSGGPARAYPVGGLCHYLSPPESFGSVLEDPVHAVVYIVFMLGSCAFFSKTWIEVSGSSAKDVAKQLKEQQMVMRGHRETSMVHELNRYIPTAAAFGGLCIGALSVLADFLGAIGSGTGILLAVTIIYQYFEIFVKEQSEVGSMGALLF
# T2 sequence (P61619 whole entry): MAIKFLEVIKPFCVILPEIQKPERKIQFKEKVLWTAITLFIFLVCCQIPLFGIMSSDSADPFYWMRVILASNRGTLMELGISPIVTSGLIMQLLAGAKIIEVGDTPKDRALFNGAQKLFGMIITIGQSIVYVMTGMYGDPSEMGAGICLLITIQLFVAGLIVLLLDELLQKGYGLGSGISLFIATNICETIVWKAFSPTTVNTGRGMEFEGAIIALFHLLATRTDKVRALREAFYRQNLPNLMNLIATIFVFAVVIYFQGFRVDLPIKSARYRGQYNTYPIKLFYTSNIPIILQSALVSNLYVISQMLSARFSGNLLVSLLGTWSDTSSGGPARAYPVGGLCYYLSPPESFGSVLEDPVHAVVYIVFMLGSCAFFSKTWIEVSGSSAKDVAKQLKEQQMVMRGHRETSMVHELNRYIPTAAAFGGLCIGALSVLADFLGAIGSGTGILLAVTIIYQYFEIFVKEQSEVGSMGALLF
# T2 sequence (P60059 whole entry, further chain): as the sequence (P60059 whole entry) above
# T2 sequence (P60468 whole entry, further chain): as the sequence (P60468 whole entry, further chain) above
# T1 sequence (P60468 whole entry, the tested form may be a part): as the sequence (P60468 whole entry, further chain) above
# T1 sequence (P38377 whole entry, the tested form may be a part): as the sequence (P38377 whole entry Q127A) above, with A127Q counted along it
# T1 sequence (P60059 whole entry, further chain, the tested form may be a part): as the sequence (P60059 whole entry) above
# Sequence of Sec61α N300A (P60468 whole entry, the tested form may be a part): as the sequence (P60468 whole entry, further chain) above
# Sequence of Sec61α N300A (P60059 whole entry, further chain, the tested form may be a part): as the sequence (P60059 whole entry) above
# Sequence of Sec61α N300A (P38377 whole entry N300A, the tested form may be a part): as the sequence (P38377 whole entry Q127A) above, with A127Q, N300A counted along it
compound,measurement,setting,value
CC(C)CC1NC(=O)C(Cc2cn(Cc3ccc(Br)cc3)c3ccccc23)N(C)C(=O)C(CC(F)(F)F)NC(=O)C(CC(C)C)N(C)C(=O)C(CC(F)(F)F)NC(=O)C(CCC#N)OC(=O)C(C)N(C)C1=O (stereo not drawn) [KZR-8445] (cyclo([X1]L[NMeA][X2][ξAla(CF3)][NMeL][ξAla(CF3)]); configuration not given here),remaining activity at 0.00018303 µM,"[1]; HEK293, 24 h, read-out: luciferase reporter activity (% of no-drug control), N300A, Drug nM (log10) 0.18303",95.9%
same,remaining activity at 0.000660151 µM,"[1]; HEK293, 24 h, read-out: luciferase reporter activity (% of no-drug control), N300A, Drug nM (log10) 0.660151",88.9%
same,remaining activity at 0.00113727 µM,"[1]; HEK293, 24 h, read-out: luciferase reporter activity (% of no-drug control), N300A, Drug nM (log10) 1.13727",80.9%
same,remaining activity,"[1]; HEK293, 24 h, read-out: luciferase reporter activity (% of no-drug control), N300A, Drug nM (log10) 1.61439",74.8%
same,remaining activity,"[1]; HEK293, 24 h, read-out: luciferase reporter activity (% of no-drug control), N300A, Drug nM (log10) 2.09151",69.1%
same,remaining activity,"[1]; HEK293, 24 h, read-out: luciferase reporter activity (% of no-drug control), N300A, Drug nM (log10) 2.56864",69.9%
same,remaining activity,"[1]; HEK293, 24 h, read-out: luciferase reporter activity (% of no-drug control), N300A, Drug nM (log10) 3.04576",64%
same,remaining activity,"[1]; HEK293, 24 h, read-out: luciferase reporter activity (% of no-drug control), N300A, Drug nM (log10) 3.52288",62%
same,remaining activity at 0.004 µM,"[1]; HEK293, 24 h, read-out: luciferase reporter activity (% of no-drug control), N300A, Drug nM (log10) 4",67.2%
same,remaining activity at 0.000508 µM,"[1]; HEK293, 24 h, read-out: luciferase reporter activity (% of no-drug control), N300A, Drug nM (log10) -0.29409",96.5%
same,effect of N300A Sec61α expression on sensitivity in secreted GLuc assay,[1]; HEK293 cells,conferred resistance
same,Sec61 WT - Hu IL2(FL),[2]; 0.32 nM,112 and 115 and 119
same,Sec61 WT - Hu PD1(ss),[2]; 0.32 nM,120 and 121 and 116
same,Sec61 WT - Hu TNFa(FL),[2]; 0.32 nM,132 and 105 and 123
same,Sec61 WT - Hu IL2(FL),[2]; 1.6 nM,108 and 112 and 116
same,Sec61 WT - Hu PD1(ss),[2]; 1.6 nM,107 and 115 and 113
same,Sec61 WT - Hu TNFa(FL),[2]; 1.6 nM,119 and 96 and 85
same,Sec61 WT - Hu IL2(FL),[2]; 8 nM,105 and 102 and 116
same,Sec61 WT - Hu PD1(ss),[2]; 8 nM,91 and 108 and 92
same,Sec61 WT - Hu TNFa(FL),[2]; 8 nM,123 and 114 and 93
same,Sec61 WT - Hu IL2(FL),[2]; 40 nM,89 and 83 and 75
same,Sec61 WT - Hu PD1(ss),[2]; 40 nM,62 and 54 and 56
same,Sec61 WT - Hu TNFa(FL),[2]; 40 nM,81 and 75 and 70
same,Sec61 WT - Hu IL2(FL),[2]; 200 nM,57 and 37 and 42
same,Sec61 WT - Hu PD1(ss),[2]; 200 nM,18 (2×) and 19
same,Sec61 WT - Hu TNFa(FL),[2]; 200 nM,36 and 30 and 29
same,Sec61 WT - Hu IL2(FL),[2]; 1000 nM,7 and 6 (2×)
same,Sec61 WT - Hu PD1(ss),[2]; 1000 nM,2
same,Sec61 WT - Hu TNFa(FL),[2]; 1000 nM,3 (2×) and 2
same,Sec61 WT - Hu IL2(FL),[2]; 5000 nM,1 and 0 (2×)
same,Sec61 WT - Hu PD1(ss),[2]; 5000 nM,0
same,Sec61 WT - Hu TNFa(FL),[2]; 5000 nM,1 and 0 (2×)
same,Sec61 WT - Hu IL2(FL),[2]; 25000 nM,0
same,Sec61 WT - Hu PD1(ss),[2]; 25000 nM,0 (2×) and -1
same,Sec61 WT - Hu TNFa(FL),[2]; 25000 nM,1 and 0 (2×)
same,pIC50,"[2]; 24 h, doxycycline-induced",~7.00
same,dexamethasone resistance in T-ALL cells,[3],overcome dexamethasone resistance
same,potency against VCAM-GLuc relative to pPL-GLuc,"[4]; HEK293T, 24 h",20 fold
same,remaining activity at 0.000660151 µM,[4]; [7],84%
same,remaining activity at 0.00050805 µM,[4]; [7],92.6%
same,remaining activity at 0.000660151 µM,[4]; [8],93.6%
same,remaining activity at 0.004 µM,"[4]; HEK-293T, 24 h, pPL signal peptide, Drug nM (log10) 4, read-out: secreted luciferase activity (% of no-drug control)",14%
same,remaining activity at 0.00050805 µM,[4]; [8],97.9%
same,pIC50,"[4]; read-out: IC50, prolactin signal peptide in SP-GLuc secretion assay",~6.00
same,cell viability (CTG assay),[5]; 0.025 nM,106.047 and 100.001
same,cell viability (CTG assay),[5]; 0.25 nM,110.01 and 102.05
same,cell viability (CTG assay),[5]; 2.5 nM,105.776 and 105.957
same,cell viability (CTG assay),[5]; 25 nM,105.176 and 97.9523
same,cell viability (CTG assay),[5]; 250 nM,107.467 and 93.3938
same,cell viability (CTG assay),[5]; 2500 nM,99.7089 and 85.9729
same,cell viability (CTG assay),[5]; 25000 nM,95.1208 and 88.5789
same,remaining activity at 0.00018303 µM,[6]; Drug nM (log10) 0.18303,76.3%
same,remaining activity at 0.000660151 µM,[6]; Drug nM (log10) 0.660151,76.5%
same,remaining activity at 0.00113727 µM,[6]; Drug nM (log10) 1.13727,51.2%
